In patent US6982348B2, “Aminoethanol derivatives” (Takeda Pharmaceutical Company Limited, priority 2001, dated 2006) one finds melting point data, which are given here for 27 compounds.

Where a name gives a salt, the structure may show the parent alone.

With `O=C(N[C@H](Cc1ccc(C(F)(F)F)cc1)[C@@H](O)c1ccc(F)cc1)c1cccc2c1OCC2` (racemic) [Example 77, N-((1RS,2SR)-2-(4-fluorophenyl)-2-hydroxy-1-((4-(trifluoromethyl)phenyl)methyl)ethyl)-2,3-dihydro-1-benzofuran-7-carboxamide], the melting point (commonly the temperature, or range, at which the solid turns liquid) lay within 121 to 122 °C. The result for `O=C(N[C@H](Cc1ccc(OC(F)(F)C(F)F)cc1)[C@@H](O)c1ccc(F)cc1)c1ccc(F)c2ccccc12` (racemic) [Example 131, 4-fluoro-N-[(1RS,2SR)-2-(4-fluorophenyl)-2-hydroxy-1-[4-(1,1,2,2-tetrafluoroethoxy)benzyl]ethyl]naphthalene-1-carboxamide] reads 192 to 193 °C; that for `O=C(CCC1CCCC1)N[C@H](Cc1ccc(C(F)(F)F)cc1)[C@@H](O)c1ccc(F)cc1` (racemic) [Example 45, 3-cyclopentyl-N-[(1RS,2SR)-2-(4-fluorophenyl)-2-hydroxy-1-[4-(trifluoromethyl)benzyl]ethyl]propionamide], 169 to 170 °C; that for `COc1ccc2c(C(=O)N[C@H](Cc3ccc(C(F)(F)F)cc3)[C@@H](O)c3ccc(F)cc3)cccc2c1` (racemic) [Example 56, N-((1RS,2SR)-2-(4-fluorophenyl)-2-hydroxy-1-((4-(trifluoromethyl)phenyl)methyl)ethyl)-6-(methyloxy)-1-naphthalenecarboxamide], 193 to 194 °C. `N#Cc1ccc(C[C@@H](NC(=O)c2ccc(F)c3ccccc23)[C@@H](O)c2ccc(F)cc2)cc1` (racemic) [Example 153, N-[(1RS,2SR)-1-(4-cyanobenzyl)-2-(4-fluorophenyl)-2-hydroxyethyl]-4-fluoronaphthalene-1-carboxamide] showed a melting point of 248 to 249 °C.

As for `C=C(c1cccc(C[C@@H](NC(=O)c2ccc(F)c3ccccc23)[C@@H](O)c2ccc(F)cc2)c1)C(F)(F)C(F)F` (racemic) [Example 349, 4-fluoro-N-[(1RS,2SR)-2-(4-fluorophenyl)-2-hydroxy-1-[3-[1-(1,1,2,2-tetrafluoroethyl)vinyl]benzyl]ethyl]naphthalene-1-carboxamide], the melting point is 162 to 163 °C. In the case of `CC1(C)COc2ccc(C[C@@H](NC(=O)c3cccc4c(Cl)cccc34)[C@@H](O)c3cccc(Cl)c3)cc21` (racemic) [Example 378, 5-chloro-N-{(1RS,2SR)-2-(3-chlorophenyl)-1-[(3,3-dimethyl-2,3-dihydro-1-benzofuran-5-yl)methyl]-2-hydroxyethyl}-1-naphthamide], the melting point lay in the range of 191 to 192 °C. Compound `O=C(NC(Cc1ccc(C(F)(F)F)cc1)C(O)c1ccc(F)cc1)c1ccccc1-c1ccccc1` (racemic) [Example 10, N-[2-(4-fluorophenyl)-2-hydroxy-1-[[4-(trifluoromethyl)phenyl]methyl]ethyl]-2-phenylbenzamide] gave a melting point of 133 to 134 °C. The compound `O=C(NC(Cc1ccc(C(F)(F)F)cc1)C(O)c1ccc(F)cc1)c1cccnc1` (racemic) [Example 21, N-[2-(4-fluorophenyl)-2-hydroxy-1-[[4-(trifluoromethyl)phenyl]methyl]ethyl]-3-pyridinecarboxamide] returned a melting point of 160 to 165 °C. With `O=C(N[C@H](Cc1ccc(C(F)(F)F)cc1)[C@@H](O)c1ccc(F)cc1)c1ccc(Cl)c2ccccc12` (racemic) [Example 34, 4-chloro-N-[(1RS,2SR)-2-(4-fluorophenyl)-2-hydroxy-1-[4-(trifluoromethyl)benzyl]ethyl]naphthalene-1-carboxamide], the melting point was 222 to 223 °C.

For the compound `CN(C)c1ccc(C(=O)N[C@H](Cc2ccc(C(F)(F)F)cc2)[C@@H](O)c2ccc(F)cc2)c2ccccc12` (racemic) [Example 75, 4-(dimethylamino)-N-((1RS,2SR)-2-(4-fluorophenyl)-2-hydroxy-1-((4-(trifluoromethyl)phenyl)methyl)ethyl)-1-naphthalenecarboxamide], the melting point is 169 to 170 °C.

In turn, `O=C(CCCc1ccccc1)N[C@H](Cc1ccc(F)cc1)[C@@H](O)c1ccc(C(F)(F)F)cc1` (racemic) [Example 215, N-((1RS,2SR)-1-((4-fluorophenyl)methyl)-2-hydroxy-2-(4-(trifluoromethyl)phenyl)ethyl)-4-phenylbutyramide] had a melting point of 155 to 156 °C. `O=C(N[C@H](Cc1cccc(OC(F)(F)C(F)F)c1)[C@@H](O)c1ccc(F)cc1)c1cccc2c(F)cccc12` (racemic) [Example 334, 5-fluoro-N-[(1RS,2SR)-2-(4-fluorophenyl)-2-hydroxy-1-[3-(1,1,2,2-tetrafluoroethoxy)benzyl]ethyl]naphthalene-1-carboxamide] returned a melting point of 178 to 180 °C. With `O=C(N[C@H](Cc1ccc(C(F)(F)F)cc1)[C@@H](O)c1ccccc1F)c1ccc(F)c2ccccc12` (racemic) [Example 179, 4-fluoro-N-((1RS,2SR)-2-(2-fluorophenyl)-2-hydroxy-1-((4-(trifluoromethyl)phenyl)methyl)ethyl)-1-naphthalenecarboxamide], the melting point lay in the range of 190 to 191 °C. `CC(C)c1cccc(C[C@@H](NC(=O)c2ccc(F)c3ccccc23)[C@@H](O)c2ccc(F)cc2)c1` (racemic) [Example 324, 4-fluoro-N-[(1RS,2SR)-2-(4-fluorophenyl)-2-hydroxy-1-(3-isopropylbenzyl)ethyl]naphthalene-1-carboxamide]: the melting point lay in the range of 159 to 160 °C. Consider `CC(C)NC(=O)c1ccc([C@H](O)[C@@H](Cc2cccc(OC(F)(F)C(F)F)c2)NC(=O)c2cccc3c2C=CCCC3)cc1` (racemic) [Example 315, N-[(1RS,2SR)-2-hydroxy-2-[4-[(isopropylamino)carbonyl]phenyl]-1-[3-(1,1,2,2-tetrafluoroethoxy)benzyl]ethyl]-6,7-dihydro-5H-benzo[a]cycloheptene-1-carboxamide], for which the melting point lay within 215 to 217 °C. Take `O=C(N[C@H](Cc1ccc(C(F)(F)F)cc1)[C@@H](O)c1cccc2ccccc12)C1CCCCC1` (racemic) [Example 190, N-((1RS,2SR)-2-hydroxy-2-(1-naphthalenyl)-1-((4-(trifluoromethyl)phenyl)methyl)ethyl)cyclohexanecarboxamide]: the melting point lay within 156 to 157 °C. The result for `Nc1ccc([C@H](O)[C@@H](Cc2cccc(OC(F)(F)C(F)F)c2)NC(=O)c2cccc3c2C=CCCC3)cc1` (racemic) [Example 322, N-[(1RS,2SR)-2-(4-aminophenyl)-2-hydroxy-1-[3-(1,1,2,2-tetrafluoroethoxy)benzyl]ethyl]-6,7-dihydro-5H-benzo[a]cycloheptene-1-carboxamide] reads 153 to 155 °C. The result for `O=C(O)CCC(=O)O[C@H](c1ccc(F)cc1)[C@H](Cc1ccc(C(F)(F)F)cc1)NC(=O)c1cccc2c(Cl)cccc12` (racemic) (as salt: succinate) [Example 394, (1RS,2SR)-2-[(5-chloro-1-naphthoyl)amino]-1-(4-fluorophenyl)-3-[4-(trifluoromethyl)phenyl]propyl hydrogen succinate] reads 228 to 229 °C. As for `O=C(CCCCc1ccccc1)N[C@H](Cc1ccc(C(F)(F)F)cc1)[C@@H](O)c1ccc(F)cc1` (racemic) [Example 99, N-((1RS,2SR)-2-(4-fluorophenyl)-2-hydroxy-1-((4-(trifluoromethyl)phenyl)methyl)ethyl)-5-phenylpentanamide], the figure is 152 to 153 °C. In turn, `O=C(N[C@H](Cc1ccc(C(F)(F)F)cc1)[C@@H](O)c1ccc(F)cc1)c1cccc2c1CCCC2` (racemic) [Example 33, N-[(1RS,2SR)-2-(4-fluorophenyl)-2-hydroxy-1-[4-(trifluoromethyl)benzyl]ethyl]-5,6,7,8-tetrahydronaphthalene-1-carboxamide] yielded a melting point of 219 to 221 °C.

As to `CC(=O)O[C@H](c1ccc(F)cc1)[C@H](Cc1cccc(OC(F)(F)C(F)F)c1)NC(=O)c1cccc2c1C=CCCC2` (racemic) [Example 382, (1RS,2SR)-2-[(6,7-dihydro-5H-benzo[a]cyclohepten-1-ylcarbonyl)amino]-1-(4-fluorophenyl)-3-[3-(1,1,2,2-tetrafluoroethoxy)phenyl]propyl acetate], the melting point lay in the range of 176 to 177 °C.

With `O=C(N[C@H](Cc1ccc(C(F)(F)F)cc1)[C@H](O)c1ccc(F)cc1)c1ccc(C(F)(F)F)cc1` (racemic) [Example 27, N-((1RS,2RS)-2-(4-fluorophenyl)-2-hydroxy-1-((4-(trifluoromethyl)phenyl)methyl)ethyl)-4-(trifluoromethyl)benzamide], the melting point fell in the range of 162 to 163 °C. The result for `O=C(N[C@H](Cc1ccc(C(F)(F)F)cc1)[C@@H](O)c1ccc(F)cc1)c1cccc2ccccc12` (racemic) [Example 35, N-[(1RS,2SR)-2-(4-fluorophenyl)-2-hydroxy-1-[4-(trifluoromethyl)benzyl]ethyl]naphthalene-1-carboxamide] reads 214 to 216 °C. In turn, `O=C(N[C@H](Cc1cnc(C(F)(F)F)s1)[C@@H](O)c1ccc(F)cc1)c1ccc(F)c2ccccc12` (racemic) [Example 169, 4-fluoro-N-[(1RS,2SR)-2-(4-fluorophenyl)-2-hydroxy-1-[[2-(trifluoromethyl)-1,3-thiazol-5-yl]methyl]ethyl]naphthalene-1-carboxamide] showed a melting point of 197 to 198 °C. `O=C(N[C@H](Cc1cccc(OC(F)(F)C(F)F)c1)[C@@H](O)c1ccc(F)cc1)c1cccc2c(Cl)cccc12` (racemic) [Example 333, 5-chloro-N-[(1RS,2SR)-2-(4-fluorophenyl)-2-hydroxy-1-[3-(1,1,2,2-tetrafluoroethoxy)benzyl]ethyl]naphthalene-1-carboxamide]: the melting point was 174 to 175 °C. As for `CC1(C)CCC=Cc2c(C(=O)N[C@H](Cc3cccc(OC(F)(F)C(F)F)c3)[C@@H](O)c3ccc(F)cc3)cccc21` (racemic) [Example 305, N-[(1RS,2SR)-2-(4-fluorophenyl)-2-hydroxy-1-[3-(1,1,2,2-tetrafluoroethoxy)benzyl]ethyl]-5,5-dimethyl-6,7-dihydro-5H-benzo[a]cycloheptene-1-carboxamide], the figure is 101 to 104 °C.
